Data reported in patent publication US7345065B2, “Methods and compositions for alleviating pain” (Allergan, Inc., priority 2002, dated 2008).
“Also recorded” adds a separate entry of the source.

Assays:
Chung model rats = assay: Chung rat nerve ligation model, tactile allodynia reversal (Von Frey); assay type: in vivo; conditions: for analgesia, agonist given alone: peripheral (intraperitoneal) administration, clonidine 100 μg/kg, Compound 3 1 to 1000 μg/kg; for analgesia, agonist given alone / analgesia when co-administered with 0.3 μg/kg Compound 13: Compound 2 100 μg/kg; for Peak allodynia reversal (dose): intraperitoneal injection, dose (3-300 μg/kg); for long-term pain alleviation after extended dosing: gabapentin 3 mg/kg oral TID three days, amitriptyline 0.1, brimonidine 0.04, Compound 1 0.1 mg/kg/hour minipump seven days; for analgesia when co-administered with Compound 13 at 0.2 mg/kg/day: osmotic minipump; for analgesia when co-administered with 0.3 μg/kg Compound 13: intraperitoneal, clonidine 30 μg/kg; for allodynia reversal, enantiomers versus parent racemate: intraperitoneal administration, Chung model rats
Description: The Chung rat nerve ligation model is a well accepted model of peripheral neuropathic pain. In the Chung model, partial ligation of left spinal nerves L-5 and L-6 produces a long-lasting hypersensitivity to light touch on the affected left foot. The hypersensitivity is similar to pain experienced by humans with the neuropathic condition of causalgia (Kim and Chung, Pain 50:355-363 (1992)).
Chung rat surgeries of about 20 minutes duration were performed essentially as follows. Male Sprague-Dawley rats weighing 100 to 120 grams were anesthetized with isofluorane. After shaving and preparing the surgical site with betadine, an incision was made from thoracic vertebra XIII down toward the sacrum, and muscle separated from spinal vertebra (left side) at the L4-S2 levels. The L6 vertebra were located, and the transverse process carefully removed with a small rongeur to visually identify the L4-L6 spinal nerves. L5 and L6 spinal nerves were isolated and tightly ligated with 6-0 silk thread; the wound was sutured after complete hemostasis was confirmed. A small amount of antibiotic ointment was applied to the incised area before transferring the animals to a plastic recovery cage under a regulated heat-temperature lamp. Animals were not treated with any topical or local anesthetics post-operatively.
Assessment of pain in Chung model rats was performed by applying a light tactile stimulus (Von Frey hair) to the affected surgical paw as follows. A 50% pain threshold was established by applying the Von Frey hair in an up-and-down manner to the plantar surface of the surgical paw with just enough force to bend them. A positive response was recorded if the paw was withdrawn sharply. The 50% paw withdrawal threshold was determined using the method of Dixon et al., Ann. Rev. Pharmacol. Toxicol. 20:441-462 (1980). The post-drug threshold was compared to the pre-drug threshold, and the precent reversal of tactile sensitivity calculated based on a normal threshold of 15.1 grams. The results were expressed as % allodynia reversal, reflecting the percentage reversal of pain threshold relative to a normal rat (100%).
Chung surgeries were performed, and pain assessed as described above. Drugs administered via osmotic minipump were delivered as follows. ALZET (Cupertino, Calif.) minipumps (Model #1007D) were implanted subcutaneously on the rats' back between the shoulder blades. Pumps were filled with test solution prior to surgery, which was performed with aseptic procedures and sterilized surgical instruments. After anesthetization with isoflorane and midline incision between the shoulder blades through the muscle, a subcutaneous pocket was exposed. The minipump was inserted into the exposed pocket, before stapling the wounds closed and allowing animals to recover under a warming light.
ALZET osmotic minipumps (model 1007D) hold a total volume of 100 μl and delivered drug at the set rat of 0.5 μl per hour the indicated time period. Drugs were administered at the indicated rate, typically 100 μg/hr/kg, dissolved in 50% DMSO, with the concentration of drug in the pump varied depending on animal weight. […]

[1] = system: sulprostone-sensitized α-2A knockout mice; assay: Sulprostone sensitized pain (allodynia), α-2A knockout mice; assay type: in vivo, mouse
Description: (§1) In brief, mice were divided into groups of 5-6 animals. Control mice were administered 5 ul DMSO while treated animals were injected with 5 ul DMSO containing various doses of the indicated agent. After intrathecal injection, each mouse was placed in an individual 13×8.5×13 cm Plexiglass enclosure with wood chips on the floor for observation. Allodynia was assessed once every five minutes over a 50 minute time period, with response recorded eight times in the 15 to 50 minute time frame. Allodynia was assessed by light stroking of the flank of the mice with a small paintbrush and ranked as follows: 0, no response; 1, mild squeaking with attempts to move away from the stroking probe; and 2, vigorous squeaking evoked by the stroking probe, biting at the probe and strong efforts to escape. The eight scores for each animal were added together, and the mean for the group determined to give an average total score.

[2] = system: sulprostone-sensitized wild type mice; assay: Sulprostone sensitized pain (allodynia), wild type mice; assay type: in vivo, mouse
Description: Non-specific α-adrenergic agonists were assayed in α-2A receptor deficient (“knockout”) mice (Hein et al., supra, 1999) using a mouse model of sulprostone sensitized pain in which allodynia is evoked by intrathecal administration of a selective prostaglandin E2 receptor agonist to conscious mice essentially as described in Minami et al., Pain 57:217-223 (1994). In this model, the pain response to stroking the flank with a paint brush is scored eight times over a 35 minute period starting 15 minutes following spinal administration of sulprostone and intrathecal or intraperitoneal administration of drug or control vehicle. Sulprostone elicits a “pain” score of 12-13 on a 16-point scale.
as §1, with “Assays for allodynia in wild type and α-2A knockout mice were performed essentially according to the method of Yaksh and Harty, J. Pharmacology Exp. Ther. 244: 501-507 (1998). In” for “In”

[3] = system: α-2B heterozygous (−/+) and homozygous (−/−) knockout mice; assay: Sulprostone sensitized pain (allodynia), α-2B knockout mice; assay type: in vivo, mouse; conditions: intraperitoneal; heterozygous and homozygous α-2B knockout; clonidine 500 ug/kg, Compound 3 100 ug/kg
Male Sprague-Dawley rats = assay: Sedative effects in rats (total activity, digicom analyzer chamber); assay type: in vivo, rat
Description: (§2) Sedative effects were analyzed by assessing exploratory behavior in a darkened chamber as follows. Mice were weighed, and test compound administered by intrathecal injection in a volume of 5 μl or by intraperitoneal injection in 1 ml/kg volume at the indicated dose. At predetermined time points corresponding with analgesia measurements 5 to 30 minutes following the injection, the animal's activity was determined automatically by placing the mouse in a digicom analyzer chamber (Omnitech Electronic; Columbus, Ohio). The digicom analyzer chamber contains photocell beams criss-crossing the box that are broken as the animal moves around; the chamber was modified for mice by raising the level of the floor. Computer analysis of total animal movement proceeded over a 5-minute time period. Any given animal was used at most twice for this protocol, as learned behavior can affect the data. All animals received at least two weeks rest between studies.
Male Sprague-Dawley rats that were not subject to surgery were used for assessment of sedative effects. Rats were weighed and compound administered by intravenous or intraperitoneal injection or given orally at the indicated dose. At a predetermined time point 5 to 30 minutes following injection, the animal's activity was determined automatically by placing the rat in a digicom analyzer chamber (Omnitech Electronic). Total activity was analyzed as described above.

mice = assay: Sedative effects in mice (exploratory activity, digicom analyzer chamber); assay type: in vivo, mouse; conditions: intraperitoneal, wild type mice; clonidine 500 ug/kg, Compound 3 100 ug/kg
Description: as §2

[4] = intraperitoneal, α-2A knockout mice (Compound 1 30 μg/kg; Compound 2 and PAC 100 μg/kg)
[5] = intrathecal injection (Compound 1: 1 μg), α-2A knockout mice
[6] = intraperitoneal injection, wild type mice (Compound 1 30 μg/kg; Compound 2 100 μg/kg)
[7] = intrathecal injection (Compound 1: 1 μg), wild type mice
[8] = subcutaneous osmotic minipump 0.1 mg/kg/hour, seven days
[9] = rauwolscine 0.3 μg/kg i.p., Compound 8 by osmotic minipump

Nc1cc(Cl)c(N=C2NCCN2)c(Cl)c1 [PAC, para-amino clonidine, reference compound]
analgesia, agonist given alone (Chung model rats; Chung rats): neither compound was significantly analgesic at non-sedating doses
analgesia [1, 4]: analgesic

Fc1c(Cl)cccc1CNC1=NCCO1 [Compound 6]
Peak allodynia reversal (dose) (Chung model rats): 92% +/− 5.2%

Cc1c(N=C2NCCN2)ccc2c1NCCO2 [Compound 1]
long-term pain alleviation after extended dosing (Chung model rats): the allodynia returned completely prior to or following cessation of treatment
analgesia when co-administered with Compound 13 at 0.2 mg/kg/day (Chung model rats; Chung rats): greater analgesia was observed during the dosing period, and this analgesic effect continued after completion of drug administration
analgesia, agonist given alone (Chung model rats; Chung rats): neither compound was significantly analgesic at non-sedating doses
analgesia [1, 4]: significant analgesia without sedation
analgesia [1, 5]: did not produce analgesia
analgesia [2, 6]: failed to produce analgesia separable from sedation
analgesia [2, 7]: significant analgesia separable from sedation

CN(C)CCC=C1c2ccccc2CCc2ccccc21 [amitriptyline, reference compound]
long-term pain alleviation after extended dosing (Chung model rats): the allodynia returned completely prior to or following cessation of treatment

CCC1=CC(Cc2c[nH]cn2)CCC1 (stereo not drawn) [Compound 9]
allodynia alleviated during the period of drug treatment (Chung model rats; [8]): 60-80%
persistence of analgesic effects after treatment (Chung model rats; [8]): continued for over a month after treatment was concluded

Clc1cccc(CNC2=NCCS2)c1Cl [Compound 5]
Peak allodynia reversal (dose) (Chung model rats): 77% +/− 8.3%

Brc1c(NC2=NCCN2)ccc2nccnc12 [brimonidine]
long-term pain alleviation after extended dosing (Chung model rats): the allodynia returned completely prior to or following cessation of treatment
analgesia when co-administered with Compound 13 at 0.2 mg/kg/day (Chung model rats; Chung rats): greater analgesia was observed during the dosing period, and this analgesic effect continued after completion of drug administration
analgesic effect in α-2B knockout mice [3]: analgesic
analgesia [1, 4]: significant analgesia without sedation
analgesia [1, 5]: did not produce analgesia
analgesia [2, 6]: failed to produce analgesia separable from sedation
analgesia [2, 7]: significant analgesia separable from sedation

Fc1ccc(Br)c(CNC2=NCCO2)c1 [Compound 14]
Peak allodynia reversal (dose) (Chung model rats): 77% +/− 6.2%

COC(=O)[C@H]1[C@H]2C[C@H]3c4[nH]c5ccccc5c4CCN3C[C@H]2CC[C@@H]1O [rauwolscine, reference compound]
inhibition of the analgesic activity of Compound 8, fourth day of treatment (Chung model rats; [9]): not on the fourth day
inhibition of the analgesic activity of Compound 8, third day of treatment (Chung model rats; [9]): inhibited the analgesic activity of Compound 8 when injected on the third day
effect on the analgesic effect of PAC (100 μg/kg i.p.) ([1]; rauwolscine 0.3 μg/kg intraperitoneal, α-2A knockout mice): blocked

Clc1cccc(Cl)c1N=C1NCCN1 [clonidine, reference compound]
analgesia when co-administered with 0.3 μg/kg Compound 13 (Chung model rats; Chung rats): dramatic allodynia reversal
analgesia (Chung model rats; intrathecal injection, Chung rats): significant analgesia separable from sedation
sedation (activity) (Male Sprague-Dawley rats; clonidine 30 μg/kg intraperitoneal): reduces activity
sedation (Male Sprague-Dawley rats; clonidine 100 μg/kg intraperitoneal): extremely sedating
analgesic effect in α-2B knockout mice [3]: alleviated the analgesia in both heterozygous and homozygous α-2B knockout strains
analgesia [1, 4]: significant analgesia without sedation
analgesia [1, 5]: did not produce analgesia
analgesia [2, 6]: failed to produce analgesia separable from sedation
sulprostone-induced tactile allodynia ([2]; intraperitoneal, wild type mice, clonidine 500 ug/kg, Compound 3 100 ug/kg): alleviated sulprostone-induced tactile allodynia
analgesia [2, 7]: significant analgesia separable from sedation
concomitant sedation (mice): produced concomitant sedation

NCC1(CC(=O)O)CCCCC1 [gabapentin, reference compound]
long-term pain alleviation after extended dosing (Chung model rats): the allodynia returned completely prior to or following cessation of treatment

CC1=CCCC1Cc1c[nH]c(=S)[nH]1 (stereo not drawn) [Compound 2]
analgesia when co-administered with 0.3 μg/kg Compound 13 (Chung model rats; Chung rats): significant analgesia
analgesia, agonist given alone (Chung model rats; Chung rats): not analgesic
sedative effects (Male Sprague-Dawley rats; 100 μg/kg Compound 2 co-administered with 0.3 μg/kg Compound 13): no significant sedative effects
analgesia [1, 4]: fully analgesic
analgesia [2, 6]: not analgesic

Cc1cccc(CNC(=S)NCCO)c1F [Compound 7]
Peak allodynia reversal (dose) (Chung model rats): 60% +/− 8.0%

O=c1[nH]cc(C[C@H]2CCc3cc(F)ccc32)[nH]1 [Compound 12]
allodynia reversal, enantiomers versus parent racemate (Chung model rats): at least as effective as the parent compound in reducing allodynia at all doses tested

O=C1c2ccccc2CCC1Cc1c[nH]c(=S)[nH]1 (stereo not drawn) [Compound 10]
allodynia reversal, enantiomers versus parent racemate (Chung model rats): allodynia reversal was obtained; also recorded: as effective as parent racemic mixture in relieving pain
